Laboratory results from patent US6926763B2, “Purine and isosteric antibacterial compounds” (GLSynthesis, Inc., priority 2002, dated 2005).
Converted amounts (≈) assume the structure as drawn. Where two headings read alike, the source gives them in different places.

What was measured:
[1] = tested on: vancomycin-resistant E. fecium; test: Inhibition of bacterial growth (agar plate MIC), VRE; type: cell-based, Enterococcus fecium; details: agar plates, 37° C., 24 hours
Experimental: (§1) Antimicrobial efficacy may be determined by standard methods of microbial culture in growth medium or on plates of agar supplemented with appropriate growth media. For example, microbes, e.g., mycoplasmata or Gram-positive or Gram-negative bacteria, are grown in the presence of serial dilutions of compounds in an appropriate vehicle, and, after a suitable period of growth, the microbial density is measured by visual or instrumental means. The concentration of compound at which no growth occurs is the minimum inhibitory concentration (MIC) of the compound. Test compounds with an appropriate level of growth inhibition are good candidate therapeutics for further evaluation.
(§2) Each compound was assayed against a panel of Gram-positive Bacilli, Enterococci, and Staphylococci, and Gram-negative Escherichia coli, grown in appropriate plate media solidified with 1.3% agar-agar. […] One tenth mL of diluted bacteria containing 500-1000 colony-forming units (CFU) were plated and spread, and the plates were incubated at 37° C. for 24 hours. MIC (minimum inhibitory concentration) was equivalent to the lowest concentration at which growth, i.e. colony formation, was not observed.

MRSA (B42876) = test: Inhibition of bacterial growth (agar plate MIC), MRSA (B42876); type: cell-based, methicillin-resistant S.a.; details: agar plates, 37° C., 24 hours; for MIC: Staphylococcus aureus, MRSA
Experimental: as §1, §2

Staphylococcus aureus = test: Inhibition of bacterial growth (agar plate MIC), S.a.; type: cell-based; details: agar plates, 37° C., 24 hours
Experimental: as §1, §2

B.s. pol IIIE = B.s. pol IIIE (Bacillus subtilis, UniProt O34623); test: biochemical; type: biochemical
Experimental: (§3) The ability of a test compound to inhibit the activity of DNA pol IIIC or pol IIIE enzymes can be tested by using a DNA polymerase assay as described, for example, in Barnes and Brown, Nucl. […] This rapid screening method can use natural or recombinant DNA pol III enzymes in a standard DNA polymerase activity assay. By including a test compound in a side-by-side assay with a control, the effect of the test compound on polymerase activity can be assessed.
(§4) DNA pol III activity was assayed as described in Barnes et al., Nucl.
(§5) Purified pol IIIC or pol IIIE was added to a buffered solution containing Mg^2+, DTT, glycerol, nicked calf thymus DNA, saturating concentrations of dATP, dCTP, dTTP and [^3H]-dTTP. Reaction mixtures were incubated at 30° C. for 10 min, quenched and filtered, and radioactivity in the acid-insoluble material measured by scintillation counting. Experiments were done in triplicate. Inhibitors were assayed by addition of several dilutions of a stock solution of inhibitor (DMSO or water, depending on solubility) before enzyme addition. […] The truncated assay, i.e., exclusion of the competitive substrate dGTP allows for the direct determination of apparent inhibitor constants (Ki) in this assay system.

B.s. pol IIIC = B.s. pol IIIC (Bacillus subtilis, UniProt P13267); test: biochemical; type: biochemical
Experimental: as §3, §4, §5

Enterococcus fecalis = test: Inhibition of bacterial growth (agar plate MIC), E. fecalis; type: cell-based; details: agar plates, 37° C., 24 hours; for MIC: Enterococcus
Experimental: as §1, §2

E.c. pol IIIE = E.c. pol IIIE (Escherichia coli, UniProt P10443); test: biochemical
Experimental: as §3, §4, §5

Bacillus subtilis = test: Inhibition of bacterial growth (agar plate MIC), B.s.; type: cell-based; details: agar plates, 37° C., 24 hours; for MIC: Bacillus subtilis
Experimental: as §1, §2

S.a. (Smith) = test: Inhibition of bacterial growth (agar plate MIC), S.a. (Smith); type: cell-based, Staphylococcus aureus; details: agar plates, 37° C., 24 hours; for MIC: Staphylococcus aureus
Experimental: as §1, §2

Enterococcus fecium = test: Inhibition of bacterial growth (agar plate MIC), E. fecium; type: cell-based; details: agar plates, 37° C., 24 hours; for MIC: Enterococcus
Experimental: as §1, §2

in vitro = in vitro ADME; details: human, Caco-2
Source text: Table 2 summarizes the results of cell membrane permeability assays of representative compounds of the invention. The assay utilizes CaCo2 cell culture monolayers, described by Artursson and Kalsson, Biochem. Biophys. Res.

[2] = truncated assay without dGTP, apparent Ki
[3] = truncated assay without dGTP, apparent Ki, read-out: Ki, B.s. pol IIIC

Chain of B.s. pol IIIE (O34623 whole entry): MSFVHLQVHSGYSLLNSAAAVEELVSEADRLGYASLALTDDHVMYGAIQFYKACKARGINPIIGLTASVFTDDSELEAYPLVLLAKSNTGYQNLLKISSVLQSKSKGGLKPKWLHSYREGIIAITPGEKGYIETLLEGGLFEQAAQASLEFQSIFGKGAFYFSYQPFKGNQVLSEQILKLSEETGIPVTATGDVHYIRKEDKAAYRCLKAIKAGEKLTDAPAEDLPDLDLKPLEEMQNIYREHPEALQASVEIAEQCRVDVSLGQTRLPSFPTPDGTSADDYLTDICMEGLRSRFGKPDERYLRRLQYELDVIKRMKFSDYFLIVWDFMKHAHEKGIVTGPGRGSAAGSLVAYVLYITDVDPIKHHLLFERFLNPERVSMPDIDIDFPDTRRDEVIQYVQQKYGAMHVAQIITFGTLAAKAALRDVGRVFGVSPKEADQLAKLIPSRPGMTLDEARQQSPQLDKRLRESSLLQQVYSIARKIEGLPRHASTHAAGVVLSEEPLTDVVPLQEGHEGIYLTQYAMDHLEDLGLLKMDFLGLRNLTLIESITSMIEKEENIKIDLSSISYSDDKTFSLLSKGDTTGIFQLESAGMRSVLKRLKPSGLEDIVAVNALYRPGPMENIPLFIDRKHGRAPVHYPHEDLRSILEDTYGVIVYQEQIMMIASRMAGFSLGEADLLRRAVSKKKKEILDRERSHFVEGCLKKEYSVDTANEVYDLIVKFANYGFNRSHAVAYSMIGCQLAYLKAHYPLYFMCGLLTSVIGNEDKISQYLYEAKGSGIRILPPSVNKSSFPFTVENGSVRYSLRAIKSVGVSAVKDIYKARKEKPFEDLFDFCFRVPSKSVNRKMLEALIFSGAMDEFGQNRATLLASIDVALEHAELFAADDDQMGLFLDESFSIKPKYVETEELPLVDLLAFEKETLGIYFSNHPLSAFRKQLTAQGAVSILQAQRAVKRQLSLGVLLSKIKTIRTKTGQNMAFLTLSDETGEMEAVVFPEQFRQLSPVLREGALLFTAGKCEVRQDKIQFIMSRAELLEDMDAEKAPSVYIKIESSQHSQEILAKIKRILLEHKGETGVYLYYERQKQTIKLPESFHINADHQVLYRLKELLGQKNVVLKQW
Chain of B.s. pol IIIC (P13267 whole entry): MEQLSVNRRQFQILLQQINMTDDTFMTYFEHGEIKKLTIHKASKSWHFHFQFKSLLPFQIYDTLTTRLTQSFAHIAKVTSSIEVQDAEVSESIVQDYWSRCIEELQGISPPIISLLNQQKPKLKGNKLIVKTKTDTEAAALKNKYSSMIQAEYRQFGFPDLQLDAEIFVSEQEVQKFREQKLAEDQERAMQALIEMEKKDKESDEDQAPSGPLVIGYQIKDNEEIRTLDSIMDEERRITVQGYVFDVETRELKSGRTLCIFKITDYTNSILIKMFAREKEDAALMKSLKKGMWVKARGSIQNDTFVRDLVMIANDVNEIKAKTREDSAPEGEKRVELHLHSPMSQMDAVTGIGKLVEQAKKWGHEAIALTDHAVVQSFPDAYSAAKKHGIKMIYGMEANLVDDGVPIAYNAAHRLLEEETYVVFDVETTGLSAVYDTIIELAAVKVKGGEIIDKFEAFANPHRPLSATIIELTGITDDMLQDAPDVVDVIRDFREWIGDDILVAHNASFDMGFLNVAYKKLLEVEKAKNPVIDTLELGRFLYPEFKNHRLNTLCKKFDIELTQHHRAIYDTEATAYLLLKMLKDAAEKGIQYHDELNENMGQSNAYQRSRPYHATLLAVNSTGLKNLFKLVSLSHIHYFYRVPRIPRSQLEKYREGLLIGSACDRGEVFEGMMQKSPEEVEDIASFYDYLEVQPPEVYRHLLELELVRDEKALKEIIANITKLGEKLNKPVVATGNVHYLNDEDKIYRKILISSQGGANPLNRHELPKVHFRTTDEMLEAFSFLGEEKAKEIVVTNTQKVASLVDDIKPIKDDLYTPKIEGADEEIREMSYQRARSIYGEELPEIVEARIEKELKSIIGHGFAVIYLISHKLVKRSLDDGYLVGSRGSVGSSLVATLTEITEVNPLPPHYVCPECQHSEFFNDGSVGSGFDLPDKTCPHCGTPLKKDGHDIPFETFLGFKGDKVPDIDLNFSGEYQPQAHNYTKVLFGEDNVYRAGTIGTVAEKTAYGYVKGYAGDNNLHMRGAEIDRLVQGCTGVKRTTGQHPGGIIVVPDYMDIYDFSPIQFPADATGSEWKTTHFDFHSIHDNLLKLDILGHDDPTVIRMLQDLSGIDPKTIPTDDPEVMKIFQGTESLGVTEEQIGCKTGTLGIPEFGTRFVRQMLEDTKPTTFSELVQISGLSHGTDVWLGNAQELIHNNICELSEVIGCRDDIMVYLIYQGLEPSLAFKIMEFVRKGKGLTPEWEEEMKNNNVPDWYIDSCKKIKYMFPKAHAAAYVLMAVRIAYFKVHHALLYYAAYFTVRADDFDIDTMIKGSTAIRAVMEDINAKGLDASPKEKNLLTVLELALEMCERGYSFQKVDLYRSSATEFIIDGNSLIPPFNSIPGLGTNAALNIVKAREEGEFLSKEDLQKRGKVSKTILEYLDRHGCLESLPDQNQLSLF
Chain of E.c. pol IIIE (P10443 whole entry): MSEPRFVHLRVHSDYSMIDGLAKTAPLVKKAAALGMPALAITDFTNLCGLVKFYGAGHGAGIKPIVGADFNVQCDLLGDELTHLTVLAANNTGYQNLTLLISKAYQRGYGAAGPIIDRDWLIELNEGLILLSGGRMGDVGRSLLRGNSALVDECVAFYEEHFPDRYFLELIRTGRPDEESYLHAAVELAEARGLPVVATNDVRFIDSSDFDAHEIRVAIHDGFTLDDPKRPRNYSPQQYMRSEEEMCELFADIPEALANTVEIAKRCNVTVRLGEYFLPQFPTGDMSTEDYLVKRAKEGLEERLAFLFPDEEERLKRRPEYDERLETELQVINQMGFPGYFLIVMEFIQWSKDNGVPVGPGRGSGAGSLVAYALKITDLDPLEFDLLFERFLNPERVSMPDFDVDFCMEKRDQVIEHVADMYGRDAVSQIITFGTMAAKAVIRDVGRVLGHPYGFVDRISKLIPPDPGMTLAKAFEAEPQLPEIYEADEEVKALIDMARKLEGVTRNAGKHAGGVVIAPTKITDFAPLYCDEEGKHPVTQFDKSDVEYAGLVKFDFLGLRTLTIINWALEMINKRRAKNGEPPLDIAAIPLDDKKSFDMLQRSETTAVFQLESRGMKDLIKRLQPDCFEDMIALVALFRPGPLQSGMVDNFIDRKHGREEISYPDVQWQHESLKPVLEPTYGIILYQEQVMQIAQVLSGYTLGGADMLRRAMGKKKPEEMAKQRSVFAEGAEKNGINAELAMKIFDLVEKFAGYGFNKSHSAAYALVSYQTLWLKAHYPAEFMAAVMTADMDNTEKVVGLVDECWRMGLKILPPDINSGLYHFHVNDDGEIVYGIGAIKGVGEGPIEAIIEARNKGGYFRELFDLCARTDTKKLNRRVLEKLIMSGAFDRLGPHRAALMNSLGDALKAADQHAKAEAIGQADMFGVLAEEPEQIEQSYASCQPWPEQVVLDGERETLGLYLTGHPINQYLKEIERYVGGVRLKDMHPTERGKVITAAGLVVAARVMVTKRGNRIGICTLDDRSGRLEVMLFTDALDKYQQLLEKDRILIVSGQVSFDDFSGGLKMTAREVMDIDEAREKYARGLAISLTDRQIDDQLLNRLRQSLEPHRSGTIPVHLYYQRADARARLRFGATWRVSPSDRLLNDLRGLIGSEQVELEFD

Structure (SMILES) | MIC (MRSA (B42876)) | Ki (B.s. pol IIIC) | MIC (Enterococcus fecalis) | MIC (Bacillus subtilis) | MIC (Enterococcus fecium) | Ki, B.s. pol IIIE (B.s. pol IIIE; [2]) | Ki (B.s. pol IIIC; [3]) | Papp (in vitro) | other results
O=c1[nH]c(NCc2ccc(Cl)c(Cl)c2)nc2ncn(CCCCCI)c12 [Compound 13, 7-(5-Iodopentyl)-2-(3,4-dichlorobenzylamino)-6-oxopurine] | 1.25 µg/mL (≈ 2.47 µM) | 70 nM | 2.5 µg/mL (≈ 4.94 µM) | 1.4 µg/mL (≈ 2.77 µM) | 2.5 µg/mL (≈ 4.94 µM) |  |  |  | MIC ([1]; Enterococcus, VRE): 2.5 µg/mL (≈ 4.94 µM); MIC (Staphylococcus aureus; Staphylococcus aureus): 3.7 µg/mL (≈ 7.31 µM); Ki (B.s. pol IIIE): 88 nM; Ki (E.c. pol IIIE): 47000 nM; MIC (S.a. (Smith)): 3.7 µg/mL (≈ 7.31 µM)
CCc1cc(Nc2cc3ncn(CCCCOC)c3c(=O)[nH]2)ccc1C [Compound 15, 2-(3-Ethyl-4-methylphenylamino)-6-oxo-7-(4-methoxybutyl)-3-deazapurine] | 10 µg/mL (≈ 28.2 µM) | 1500 nM | 10 µg/mL (≈ 28.2 µM) | 2.5 µg/mL (≈ 7.05 µM) | 10 µg/mL (≈ 28.2 µM) | inact |  |  | 
CCc1cc(Nc2cc3ncn(CCCCN4CCOCC4)c3c(=O)[nH]2)ccc1C [Compound 16, 2-(3-Ethyl-4-methylphenylamino)-6-oxo-7-(4-morpholinylbutyl)-3-deazapurine] |  |  |  |  |  | inact | 1100 nM |  | MIC, VRE [1]: >80 µg/mL; MIC, MRSA (B42876) (MRSA (B42876)): 30 µg/mL (≈ 73.3 µM); MIC, S.a. (Staphylococcus aureus): 40 µg/mL (≈ 97.7 µM); MIC, E. fecalis (Enterococcus fecalis): >80 µg/mL; Ki, E.c. pol IIIE (E.c. pol IIIE; [2]): inact; MIC, B.s. (Bacillus subtilis): 10 µg/mL (≈ 24.4 µM); MIC, S.a. (Smith) (S.a. (Smith)): 40 µg/mL (≈ 97.7 µM); MIC, E. fecium (Enterococcus fecium): 20 µg/mL (≈ 48.8 µM)
CCc1cc(Nc2nc3ncn(CCCCO)c3c(=O)[nH]2)ccc1C [Compound 18, 7-(4-Hydroxybutyl)-2-(3-ethyl-4-methylphenylamino)-6-oxopurine] | 30 µg/mL (≈ 87.9 µM) |  | 20 µg/mL (≈ 58.6 µM) | 15 µg/mL (≈ 43.9 µM) | 20 µg/mL (≈ 58.6 µM) | inact | 470 nM | 0.56 ×10⁻⁶ cm/s | MIC (S.a. (Smith)): 40 µg/mL (≈ 117 µM)
CCc1cc(Nc2nc3ncn(CCCCCOC(C)=O)c3c(=O)[nH]2)ccc1C [Compound 19, 7-(5-Acetoxypentyl)-2-(3-ethyl-4-methylphenylamino)-6-oxopurine] |  |  |  |  |  |  |  | 0.58 ×10⁻⁶ cm/s | 
CCc1cc(Nc2nc3ncn(CCCCCO)c3c(=O)[nH]2)ccc1C [Compound 20, 7-(5-Hydroxypentyl)-2-(3-ethyl-4-methylphenylamino)-6-oxopurine] | 20 µg/mL (≈ 56.3 µM) |  | 10 µg/mL (≈ 28.1 µM) |  | 10 µg/mL (≈ 28.1 µM) |  | 280 nM | 0.62 ×10⁻⁶ cm/s | 
CCc1cc(Nc2nc3ncn(CCCCCOC)c3c(=O)[nH]2)ccc1C [Compound 22, 7-(5-Methoxypentyl)-2-(3-ethyl-4-methylphenylamino)-6-oxopurine] |  | 260 nM | 5 µg/mL (≈ 13.5 µM) | 1.25 µg/mL (≈ 3.38 µM) | 10 µg/mL (≈ 27.1 µM) |  |  |  | Ki (B.s. pol IIIE): 394000 nM
CCc1cc(Nc2nc3ncn(CCCCCN4CCC(O)(c5ccc(Cl)c(C(F)(F)F)c5)CC4)c3c(=O)[nH]2)ccc1C [Compound 23, 7-{5-[4-hydroxy-4-(3-trifluoromethyl-4-chlorophenyl)piperidyl]pentyl}-2-(3-ethyl-4-methylphenylamino)-6-oxopurine] |  |  |  |  |  |  | 130 nM |  | MIC, VRE [1]: 5 µg/mL (≈ 8.1 µM); MIC, MRSA (B42876) (MRSA (B42876)): 5 µg/mL (≈ 8.1 µM); MIC, S.a. (Staphylococcus aureus): 5 µg/mL (≈ 8.1 µM); Ki (B.s. pol IIIE; truncated assay without dGTP, apparent Ki, read-out: Ki, B.s. pol IIIE): 38000 nM; MIC, E. fecalis (Enterococcus fecalis): 5 µg/mL (≈ 8.1 µM); MIC, B.s. (Bacillus subtilis): 2.5 µg/mL (≈ 4.05 µM); MIC, S.a. (Smith) (S.a. (Smith)): 5 µg/mL (≈ 8.1 µM); MIC, E. fecium (Enterococcus fecium): 5 µg/mL (≈ 8.1 µM)
CC(C)NCC(O)COc1cccc2ccccc12 (centres unmarked) [Propranolol, reference compound] |  |  |  |  |  |  |  | 19.3 ×10⁻⁶ cm/s | 
CNC(=C[N+](=O)[O-])NCCSCc1ccc(CN(C)C)o1 [Ranitidine, reference compound] |  |  |  |  |  |  |  | 0.27 ×10⁻⁶ cm/s | 
